Results from ChEMBL document CHEMBL1149355, “Structure-activity relationships for the linker in a series of pyridinyl-alkynes that are antagonists of the metabotropic glutamate receptor 5 (mGluR5)” (Bioorg Med Chem Lett, 2006).
Calls of active or inactive are those of the source. The rule behind the calls is not given here.

Columns and labels:
[1] = target: Metabotropic glutamate receptor 5 (Homo sapiens, UniProt P41594); experiment: Activity at human mGluR5d assessed as inhibition of glutamate-induced calcium influx by FLIPR assay; format: functional
[2] = target: Metabotropic glutamate receptor 1 (Homo sapiens) (UniProt Q13255); experiment: Activity at human mGluR1 assessed as inhibition of glutamate-induced calcium influx by FLIPR assay; format: functional
[3] = target: Metabotropic glutamate receptor 3 (Homo sapiens) (UniProt Q14832); experiment: Activity at human mGluR3 assessed as inhibition of glutamate-induced calcium influx by FLIPR assay; format: functional
[4] = target: Metabotropic glutamate receptor 4 (Homo sapiens) (UniProt Q14833); experiment: Activity at human mGluR4 assessed as inhibition of glutamate-induced calcium influx by FLIPR assay; format: functional
[5] = target: Metabotropic glutamate receptor 8 (Homo sapiens) (UniProt O00222); experiment: Activity at human mGluR8 assessed as inhibition of glutamate-induced calcium influx by FLIPR assay; format: functional
[6] = Intrinsic clearance in rat liver microsomes; format: ADME, Microsome
[7] = Clearance in dog; format: ADME, organism-based, Canis lupus familiaris; settings: in vivo
[8] = Volume of distribution in dog; format: ADME, organism-based, Canis lupus familiaris; settings: in vivo, read-out: Vss
[9] = Half life in dog; format: ADME, organism-based, Canis lupus familiaris; settings: in vivo
[10] = test system: Canis familiaris; experiment: Inhibition of transient lower esophageal sphincter relaxation in dog at 3.9 umol/kg, iv; format: functional, Canis lupus familiaris; set-up: scale not given: the % may be the effect or the level left

Metabotropic glutamate receptor 5, sequence (P41594 whole entry): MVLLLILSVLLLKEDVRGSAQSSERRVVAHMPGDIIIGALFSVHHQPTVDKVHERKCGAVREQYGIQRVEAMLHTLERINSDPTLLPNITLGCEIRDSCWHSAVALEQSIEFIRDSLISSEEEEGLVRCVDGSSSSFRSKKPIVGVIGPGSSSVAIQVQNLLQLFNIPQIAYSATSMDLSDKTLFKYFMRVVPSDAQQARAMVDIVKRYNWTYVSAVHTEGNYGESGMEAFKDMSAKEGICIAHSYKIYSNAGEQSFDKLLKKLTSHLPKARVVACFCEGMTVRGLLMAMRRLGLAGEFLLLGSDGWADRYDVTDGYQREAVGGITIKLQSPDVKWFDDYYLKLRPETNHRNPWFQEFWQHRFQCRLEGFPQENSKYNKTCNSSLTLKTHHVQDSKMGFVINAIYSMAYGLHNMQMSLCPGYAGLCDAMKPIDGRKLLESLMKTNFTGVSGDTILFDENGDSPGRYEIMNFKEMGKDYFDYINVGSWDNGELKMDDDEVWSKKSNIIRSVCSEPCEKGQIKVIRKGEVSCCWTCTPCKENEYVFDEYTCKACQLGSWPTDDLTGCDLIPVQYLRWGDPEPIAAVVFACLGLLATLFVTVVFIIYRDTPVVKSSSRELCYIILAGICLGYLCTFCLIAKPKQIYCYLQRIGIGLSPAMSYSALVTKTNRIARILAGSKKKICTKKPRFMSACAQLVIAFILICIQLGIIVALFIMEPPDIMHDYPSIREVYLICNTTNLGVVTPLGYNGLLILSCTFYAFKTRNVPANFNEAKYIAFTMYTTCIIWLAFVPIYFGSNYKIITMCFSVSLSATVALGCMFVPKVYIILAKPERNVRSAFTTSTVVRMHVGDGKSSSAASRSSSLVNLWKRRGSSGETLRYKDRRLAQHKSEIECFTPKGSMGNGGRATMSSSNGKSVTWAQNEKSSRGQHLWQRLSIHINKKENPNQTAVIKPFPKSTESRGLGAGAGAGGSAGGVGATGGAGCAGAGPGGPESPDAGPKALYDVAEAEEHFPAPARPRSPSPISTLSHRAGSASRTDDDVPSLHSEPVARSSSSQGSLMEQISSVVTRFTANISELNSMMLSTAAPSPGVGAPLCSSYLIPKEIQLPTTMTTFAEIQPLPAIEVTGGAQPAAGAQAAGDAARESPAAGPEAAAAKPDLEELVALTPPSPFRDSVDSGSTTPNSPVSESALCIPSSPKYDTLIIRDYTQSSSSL
Metabotropic glutamate receptor 1 (Homo sapiens), sequence (Q13255 19-1194 limits assumed): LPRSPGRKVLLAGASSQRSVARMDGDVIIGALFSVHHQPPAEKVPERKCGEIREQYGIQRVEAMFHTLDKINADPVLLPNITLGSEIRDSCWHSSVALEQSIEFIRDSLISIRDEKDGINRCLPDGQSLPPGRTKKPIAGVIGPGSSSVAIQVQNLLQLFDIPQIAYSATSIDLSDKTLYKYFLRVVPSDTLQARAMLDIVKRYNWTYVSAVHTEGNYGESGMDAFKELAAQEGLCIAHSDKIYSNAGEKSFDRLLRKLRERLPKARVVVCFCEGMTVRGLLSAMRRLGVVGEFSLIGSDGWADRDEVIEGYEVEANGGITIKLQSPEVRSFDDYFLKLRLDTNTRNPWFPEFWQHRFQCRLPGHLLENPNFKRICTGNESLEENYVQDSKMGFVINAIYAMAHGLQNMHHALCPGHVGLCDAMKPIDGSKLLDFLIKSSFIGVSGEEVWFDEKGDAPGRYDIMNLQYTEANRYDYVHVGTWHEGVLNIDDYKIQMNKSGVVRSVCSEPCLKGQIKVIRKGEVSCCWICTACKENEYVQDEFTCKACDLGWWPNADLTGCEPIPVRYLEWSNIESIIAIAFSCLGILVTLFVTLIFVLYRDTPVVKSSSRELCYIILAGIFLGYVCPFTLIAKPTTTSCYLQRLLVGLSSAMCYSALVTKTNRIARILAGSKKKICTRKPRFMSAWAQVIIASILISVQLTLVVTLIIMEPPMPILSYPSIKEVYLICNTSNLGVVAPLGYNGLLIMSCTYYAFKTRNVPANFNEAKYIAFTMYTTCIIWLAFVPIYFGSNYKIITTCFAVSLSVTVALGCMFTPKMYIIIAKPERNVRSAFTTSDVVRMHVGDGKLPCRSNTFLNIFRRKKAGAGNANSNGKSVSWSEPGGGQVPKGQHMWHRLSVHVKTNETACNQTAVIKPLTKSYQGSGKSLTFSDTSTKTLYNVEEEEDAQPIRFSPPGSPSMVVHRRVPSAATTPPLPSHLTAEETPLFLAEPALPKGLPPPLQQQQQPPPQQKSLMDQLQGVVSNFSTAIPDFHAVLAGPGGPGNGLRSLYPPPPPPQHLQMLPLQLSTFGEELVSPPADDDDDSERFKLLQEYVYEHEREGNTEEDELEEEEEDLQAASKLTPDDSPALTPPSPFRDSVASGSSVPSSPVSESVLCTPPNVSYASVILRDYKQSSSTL
Metabotropic glutamate receptor 3 (Homo sapiens), sequence (Q14832 23-879 limits assumed): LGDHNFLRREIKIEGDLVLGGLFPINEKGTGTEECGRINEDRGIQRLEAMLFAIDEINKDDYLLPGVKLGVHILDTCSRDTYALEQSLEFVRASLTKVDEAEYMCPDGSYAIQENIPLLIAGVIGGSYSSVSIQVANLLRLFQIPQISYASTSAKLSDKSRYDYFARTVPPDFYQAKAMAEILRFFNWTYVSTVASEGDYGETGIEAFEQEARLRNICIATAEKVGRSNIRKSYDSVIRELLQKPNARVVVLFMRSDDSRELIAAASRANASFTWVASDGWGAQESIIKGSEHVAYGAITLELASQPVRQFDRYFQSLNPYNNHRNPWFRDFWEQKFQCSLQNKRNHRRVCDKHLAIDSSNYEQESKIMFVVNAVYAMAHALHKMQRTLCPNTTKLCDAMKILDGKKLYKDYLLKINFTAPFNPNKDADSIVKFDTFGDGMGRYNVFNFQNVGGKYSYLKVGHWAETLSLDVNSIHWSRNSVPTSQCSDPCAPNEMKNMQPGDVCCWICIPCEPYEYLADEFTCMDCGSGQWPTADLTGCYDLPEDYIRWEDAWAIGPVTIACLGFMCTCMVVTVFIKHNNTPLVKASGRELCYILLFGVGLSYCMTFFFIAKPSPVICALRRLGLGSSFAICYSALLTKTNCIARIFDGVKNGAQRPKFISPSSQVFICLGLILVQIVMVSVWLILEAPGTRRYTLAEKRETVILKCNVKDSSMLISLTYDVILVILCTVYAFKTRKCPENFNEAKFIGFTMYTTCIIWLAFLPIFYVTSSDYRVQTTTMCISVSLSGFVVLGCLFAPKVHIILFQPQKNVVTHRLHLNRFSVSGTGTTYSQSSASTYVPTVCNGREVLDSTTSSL
Metabotropic glutamate receptor 8 (Homo sapiens), sequence (O00222 whole entry): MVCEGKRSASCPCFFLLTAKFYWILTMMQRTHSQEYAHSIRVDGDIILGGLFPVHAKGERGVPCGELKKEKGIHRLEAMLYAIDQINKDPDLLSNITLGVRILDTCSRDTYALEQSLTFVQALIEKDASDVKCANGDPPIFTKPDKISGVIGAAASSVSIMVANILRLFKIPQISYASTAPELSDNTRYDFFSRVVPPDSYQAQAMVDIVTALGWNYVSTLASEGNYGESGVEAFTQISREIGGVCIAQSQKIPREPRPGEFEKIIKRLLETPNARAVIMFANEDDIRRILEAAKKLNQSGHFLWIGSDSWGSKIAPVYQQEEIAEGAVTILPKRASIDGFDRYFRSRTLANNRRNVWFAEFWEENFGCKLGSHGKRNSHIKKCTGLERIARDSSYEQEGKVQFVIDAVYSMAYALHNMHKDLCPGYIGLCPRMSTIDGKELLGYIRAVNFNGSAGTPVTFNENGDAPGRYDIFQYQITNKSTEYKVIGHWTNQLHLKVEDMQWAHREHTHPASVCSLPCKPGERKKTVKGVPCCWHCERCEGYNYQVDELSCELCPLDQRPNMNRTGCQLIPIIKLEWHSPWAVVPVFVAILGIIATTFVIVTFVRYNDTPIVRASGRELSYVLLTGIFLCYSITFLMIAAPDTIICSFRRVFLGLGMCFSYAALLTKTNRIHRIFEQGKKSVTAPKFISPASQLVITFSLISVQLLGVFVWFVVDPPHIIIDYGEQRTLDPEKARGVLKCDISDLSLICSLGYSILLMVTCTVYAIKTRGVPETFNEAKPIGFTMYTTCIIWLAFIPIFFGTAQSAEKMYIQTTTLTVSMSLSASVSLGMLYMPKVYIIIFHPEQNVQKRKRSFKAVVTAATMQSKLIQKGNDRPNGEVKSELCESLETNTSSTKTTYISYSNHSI
Metabotropic glutamate receptor 4 (Homo sapiens), sequence (Q14833 whole entry): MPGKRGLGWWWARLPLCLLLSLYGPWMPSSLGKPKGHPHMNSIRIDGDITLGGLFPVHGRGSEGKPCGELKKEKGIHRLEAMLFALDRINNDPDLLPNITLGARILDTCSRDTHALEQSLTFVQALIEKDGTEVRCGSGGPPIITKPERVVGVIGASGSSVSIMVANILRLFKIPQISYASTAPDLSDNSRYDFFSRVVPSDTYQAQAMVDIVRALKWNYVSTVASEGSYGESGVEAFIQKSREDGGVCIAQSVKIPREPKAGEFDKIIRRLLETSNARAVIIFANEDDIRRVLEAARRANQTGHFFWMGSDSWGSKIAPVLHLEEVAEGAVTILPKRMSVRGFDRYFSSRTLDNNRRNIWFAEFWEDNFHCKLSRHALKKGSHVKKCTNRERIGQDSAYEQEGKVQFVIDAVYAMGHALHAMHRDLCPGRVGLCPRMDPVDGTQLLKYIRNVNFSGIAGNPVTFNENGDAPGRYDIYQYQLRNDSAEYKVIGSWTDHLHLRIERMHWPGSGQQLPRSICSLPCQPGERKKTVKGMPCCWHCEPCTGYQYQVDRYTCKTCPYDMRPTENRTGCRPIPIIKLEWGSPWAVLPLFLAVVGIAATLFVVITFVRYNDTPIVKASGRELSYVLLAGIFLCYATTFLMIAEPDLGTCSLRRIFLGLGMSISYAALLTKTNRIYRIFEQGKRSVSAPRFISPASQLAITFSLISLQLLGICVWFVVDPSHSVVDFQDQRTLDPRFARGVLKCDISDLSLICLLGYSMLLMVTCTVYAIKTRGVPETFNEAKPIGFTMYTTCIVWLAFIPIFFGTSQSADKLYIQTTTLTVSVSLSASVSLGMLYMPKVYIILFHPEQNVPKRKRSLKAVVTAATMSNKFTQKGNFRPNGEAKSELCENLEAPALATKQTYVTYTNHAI

IC50 [1] | Activity [2] | SMILES | also measured
709 nM | inactive | Cc1cccc(C#CC(C)Nc2cccc(Cl)c2)n1 (configuration not stated) | –
118 nM | inactive | Cc1cccc(C#CC(C)Sc2cccc(Cl)c2)n1 (configuration not stated) | –
2610 nM | – | Cc1cccc(C#CCNC(=O)c2cccc(Cl)c2)n1 | –
> 10000 nM | – | Cc1cccc(C#CCNC(=O)Nc2cccc(Cl)c2)n1 | –
– | inactive | Cc1cccc(C#CCOc2cccc(Cl)c2)n1 | –
589 nM | – | Cc1cccc(C#CCSc2ccccc2)n1 | –
6730 nM | – | Cc1cccc(C#CCN(C)c2ccccc2)n1 | –
> 10000 nM | – | Cc1cccc(C#CC[S+]([O-])c2ccccc2)n1 (configuration not stated) | –

The next lines start with the compound.

SMILES | IC50 [1] | Activity [2] | also measured
Cc1cccc(C#CC(=O)Nc2ccccc2)n1 | > 10000 nM | – | –
Cc1cccc(C#CCSc2cccc(Cl)c2)n1 | 43 nM | inactive | –
Cc1cccc(C#CC(Sc2cccc(Cl)c2)C(C)C)n1 (configuration not stated) | 461 nM | – | –
Cc1cccc(C#CCCc2ccccc2)n1 | 78 nM | – | Activity [3]: inactive; Activity [4]: inactive; Activity [5]: inactive
Cc1cccc(C#CC(C)Oc2cccc(Cl)c2)n1 (configuration not stated) | 281 nM | inactive | –
Cc1cccc(C#CCC(C)c2ccccc2)n1 (configuration not stated) | 59 nM | – | –
Cc1cccc(C#CCCc2cccc(Cl)c2)n1 | 5 nM | inactive | Activity [3]: inactive; Activity [4]: inactive; Activity [5]: inactive; microsomal CLint [6]: 197 µL/min/mg; clearance [7]: 66 mL/min/kg; Vd [8]: 3.2 L/kg; half-life [9]: 2 h; Activity [10]: 31%
Cc1cccc(C#Cc2cc3ccccc3s2)n1 | 306 nM | – | –
Cc1cccc(C#CCNc2ccccc2)n1 | 223 nM | – | –
CCC(C#Cc1cccc(C)n1)Sc1cccc(Cl)c1 (configuration not stated) | 862 nM | – | –
Cc1cccc(C#CCCCc2ccccc2)n1 | 258 nM | – | –
Cc1cccc(C#CCNc2cccc(Cl)c2)n1 | 174 nM | inactive | –
